Test results taken from patent US20080268028A1, “Lyophilization of virosomes” (Pevion Biotech Ltd., priority 2004, published 2008).

Assay: Virosomal fusion activity before and after lyophilization (FRET assay)
Settings: cationic lipid as integral virosomal membrane component; after lyophilization and reconstitution
Procedure: FRET Assay: For in vitro fusion measurements by fluorescence resonance energy transfer (FRET) (Struck et al., Biochemistry 20(14):4093-99, 1981; Loyter et al., Methods Biochem. Anal. 33:129-64, 1988), the following assay was developed: 0.75 mol % of Bodipy 530/550-DHPE and 0.25 mol % of N-Rh-DHPE were incorporated into liposomes consisting of PC/DPPG (70:30). Fluorescence measurements were carried out at discrete temperatures between 4° C. and 42° C. in 5 mM sodium phosphate buffer pH 7.5, 100 mM NaCl, in a final volume of 0.8 ml in 2.5 ml PMMA micro-cuvettes (VWR, Switzerland) under continuous stirring. […] The increase in fluorescence was recorded every 5 seconds at excitation and emission wavelengths of 538 nm and 558 nm, respectively, with an excitation slit of 2.5 nm and an emission slit of 15.0 nm. Measurements were carried out with an LS 55 Luminescence spectrometer (Perkin Elmer Instruments, USA) equipped with a thermostated cuvette holder and a magnetic stirring device. The maximal fluorescence at infinite probe dilution was reached after addition of Triton X-100 (0.5% v/v final concentration). For calibration of the fluorescence scale the initial residual fluorescence of the liposomes was set to zero and the fluorescence at infinite probe dilution to 100%.

SMILES	preservation of virosomal fusion-activity
CC(C)CCC[C@@H](C)[C@H]1CC[C@H]2[C@@H]3CC=C4C[C@@H](OC(=O)NCC[N+](C)(C)C)CC[C@]4(C)[C@H]3CC[C@]12C.[Cl-] [TC-Chol, 3β[N-(N′,N′,N′-trimethylammonioethane)-carbamoyl]cholesterol chloride]	superior properties in preserving virosomal fusion-activity
CC(C)CCC[C@@H](C)[C@H]1CC[C@H]2[C@@H]3CC=C4C[C@@H](OC(=O)NCCN(C)C)CC[C@]4(C)[C@H]3CC[C@]12C.Cl [DC-Chol, 3β[N-(N′,N′-dimethylammonioethane)-carbamoyl]cholesterol chloride]	superior properties in preserving virosomal fusion-activity
